For assay [1], the system named is MT4. The assay is described as follows: Effective concentration of the compound to inhibit HIV-1 replication in HIV-infected MT-4 cells. In kind it is functional, cell-based. The settings on record: Homo sapiens.
In assay [2] the test system is MT4. In words: Effective concentration of the compound to inhibit HIV-1 mutant L100I replication in HIV-infected MT-4 cells. In kind it is functional, cell-based, Homo sapiens.
The test system of assay [3] is MT4. The assay is described as follows: Effective concentration of the compound to inhibit […] replication in HIV-infected MT-4 cells. The note with it: Homo sapiens. The assay is classed as functional, cell-based.
The test system of assay [4] is MT4. In words: Effective concentration of the compound to inhibit HIV-1 mutant Y181C replication in HIV-infected MT-4 cells. The assay is classed as functional, cell-based, Homo sapiens.
For assay [5], the system named is MT4. The assay is described as follows: Effective concentration of the compound to inhibit HIV-1 mutant Y188L replication in HIV-infected MT-4 cells. In kind it is functional, cell-based, Homo sapiens.
The test system of assay [6] is MT4. The assay is described as follows: Effective concentration of the compound to inhibit HIV-1 mutant K103N replication in HIV-infected MT-4 cells. In kind it is functional, cell-based, Homo sapiens.
Assay [7] relates to MT4. In words: Effective concentration of the compound to inhibit HIV-1 mutant K103N+Y181C replication in HIV-infected MT-4 cells. In kind it is functional, cell-based, Homo sapiens.
In assay [8] the test system is MT4. The assay is described as follows: Effective concentration of the compound to inhibit HIV-1 mutant L100I+K103N replication in HIV-infected MT-4 cells. In kind it is functional, cell-based, Homo sapiens.

For orientation: EC50 means the concentration giving half of the maximal effect. `N#Cc1ccc(Nc2nc(Cc3c(Cl)cccc3Cl)ns2)cc1` gave an EC50 in assay [1] above 1000 nM.

`CC(C)=CCN1Cc2cc(Cl)cc3[nH]c(=S)n(c23)C[C@@H]1C` displayed an EC50 in assay [1] of 33 nM.

Take `N#Cc1ccc(NC(=S)NC(=N)Cc2c(Cl)cccc2Cl)cc1`: the EC50 in assay [2] was found to be 510 nM; in assay [3] it was 3 nM; in assay [4], 510 nM; in assay [5] it was 320 nM; in assay [6], 590 nM.

Take `Cc1cc(C)c(Oc2ccnc(Nc3ccc(C#N)cc3)n2)c(C)c1`: the EC50 amounted to 22 nM in assay [2]; 3 nM in assay [3]; 38 nM in assay [4]; 55 nM in assay [5]; 3 nM in assay [6]; 1100 nM in assay [7]. Besides, a half-maximal effect in assay [8] (EC50) was put at 8200 nM.

For the molecule `Cc1cc(C#N)cc(C)c1Nc1ncnc(Nc2ccc(C#N)cc2)n1`, the EC50 in assay [2] is 250 nM; in assay [3], 1 nM; in assay [4] it was 50 nM; in assay [5], 50 nM; in assay [6], 8 nM; in assay [8], above 10000 nM.

Take `N#Cc1ccc(Nc2nc(N)nc(Cc3c(Cl)cccc3Cl)n2)cc1`: the EC50 in assay [2] turned out to be 400 nM; in assay [3], 6 nM; in assay [4], 200 nM; in assay [5], 320 nM; in assay [6], 40 nM.

`C=CCN1Cc2cccc3[nH]c(=O)n(c23)CC1C` (stereo unspecified) had an EC50 in assay [1] of 62000 nM.

In assay [1], `COc1ccccc1NC(C(N)=O)c1c(Cl)cccc1Cl` (stereo unspecified) came in with an EC50 of 610 nM.

The molecule `NC(=O)C(Nc1ccc(Cl)cc1)c1c(Cl)cccc1Cl` (stereo unspecified) returned a half-maximal effective concentration (EC50) in assay [1] above 50000 nM.

As to `N#Cc1ccc(Nc2cc(Cc3c(Cl)cccc3Cl)nc(N)n2)cc1`, the EC50 is above 10000 nM in assay [2]; 10 nM in assay [3]; above 10000 nM in assay [4]; above 10000 nM in assay [5]; above 10000 nM in assay [6].

`Cc1cc(C#N)cc(C)c1Oc1nc(Nc2ccc(C#N)cc2)ncc1Br`: the EC50 in assay [2] stood at 7 nM; in assay [3], 1 nM; in assay [4] it was 22 nM; in assay [5], 6 nM; in assay [6] it was 1 nM; in assay [7], 25 nM. The molecule also returned an EC50 in assay [8] of 49 nM.

In assay [1], `NC(=O)C(NC(=O)c1ccccc1[N+](=O)[O-])c1c(Cl)cccc1Cl` (stereo unspecified) returned a half-maximal effective concentration (EC50) above 50000 nM.

Regarding `NC(=O)C(Nc1ccccc1[N+](=O)[O-])c1c(Cl)cccc1Cl` (stereo unspecified), the EC50 in assay [1] amounted to 100 nM.

With `Cc1cc(C#N)cc(C)c1Nc1ccnc(Nc2ccc(C#N)cc2)n1`, the EC50 in assay [2] came out at 34 nM; in assay [3], 0.4 nM; in assay [4], 7 nM; in assay [5], 8 nM; in assay [6], 2 nM; in assay [7], 37 nM. The same molecule displayed an EC50 in assay [8] of 1100 nM.

As to `Cc1cc(C#N)cc(C)c1Nc1nc(Nc2ccc(C#N)cc2)ncc1Br`, the EC50 in assay [2] is 7 nM; in assay [3], 0.4 nM; in assay [4], 10 nM; in assay [5], 3 nM; in assay [6], 0.4 nM; in assay [7], 32 nM. In assay [8], this molecule came in with an EC50 of 37 nM.

`NC(=O)C(NC(=O)Nc1ccccc1[N+](=O)[O-])c1c(Cl)cccc1Cl` (stereo unspecified): the EC50 in assay [1] was above 50000 nM.

As for `Cc1cc(C)c(Nc2nc(Nc3ccc(C#N)cc3)ncc2Br)c(C)c1`, the EC50 in assay [2] is 11 nM; in assay [3], 6 nM; in assay [4], 36 nM; in assay [5] it was 27 nM; in assay [6], 7 nM; in assay [7] it was 280 nM. The molecule further had an EC50 in assay [8] of 350 nM.

Turning to `Cc1cc(C#N)cc(C)c1Oc1ccnc(Nc2ccc(C#N)cc2)n1`, the EC50 in assay [2] came out at 73 nM; in assay [3], 1 nM; in assay [4], 37 nM; in assay [5] it was 19 nM; in assay [6] it was 3 nM; in assay [7] it was 94 nM. This molecule had an EC50 in assay [8] of 800 nM.

Consider `NC(=O)C(/N=C(\S)Nc1ccc(Cl)cc1)c1c(Cl)cccc1Cl` (stereo unspecified), for which the EC50 in assay [1] came to 160 nM.

`NC(=O)C(/N=C(\S)Nc1ccccc1Cl)c1c(Cl)cccc1Cl` (stereo unspecified): in assay [1], the EC50 is above 50000 nM.

On to `NC(=O)C(NCc1ccccc1[N+](=O)[O-])c1c(Cl)cccc1Cl` (stereo unspecified), for which the EC50 in assay [1] is above 50000 nM.

`NC(=O)C(Nc1ccccc1Cl)c1c(Cl)cccc1Cl` (stereo unspecified) displayed an EC50 in assay [1] of 400 nM.

Consider `Cc1cc(C)c(Oc2ncnc(Nc3ccc(C#N)cc3)n2)c(C)c1`, for which the EC50 in assay [2] came out at 20 nM; in assay [3], 0.6 nM; in assay [4], 20 nM; in assay [5] it was 63 nM; in assay [6], 3 nM; in assay [7], 130 nM. Besides, the EC50 in assay [8] is 2500 nM.

In the case of `N#Cc1ccc(Nc2cc(N)nc(Cc3c(Cl)cccc3Cl)n2)cc1`, the EC50 was above 10000 nM in assay [2]; 450 nM in assay [3]; above 10000 nM in assay [4]; above 10000 nM in assay [5]; above 10000 nM in assay [6].

Turning to `N#Cc1ccc(Nc2nc(N)cc(Cc3c(Cl)cccc3Cl)n2)cc1`, the EC50 in assay [2] amounted to 300 nM; in assay [3] it was 1 nM; in assay [4] it was 180 nM; in assay [5] it was 71 nM; in assay [6], 12 nM.

With `Cc1cc(C)c(Nc2ccnc(Nc3ccc(C#N)cc3)n2)c(C)c1` [DAPIVIRINE], the EC50 amounted to 18 nM in assay [2]; 1 nM in assay [3]; 8 nM in assay [4]; 48 nM in assay [5]; 4 nM in assay [6]; 44 nM in assay [7]. The molecule also had an EC50 in assay [8] above 10000 nM.

On to `CC(C)Nc1cccnc1N1CCN(C(=O)c2cc3cc(NS(C)(=O)=O)ccc3[nH]2)CC1` [DELAVIRDINE], for which the EC50 in assay [2] is 2500 nM; in assay [3], 63 nM; in assay [4] it was 2000 nM; in assay [5] it was 1300 nM; in assay [6], 2500 nM; in assay [7], above 10000 nM.

As to `O=C1Nc2ccc(Cl)cc2[C@@](C#CC2CC2)(C(F)(F)F)O1` [EFAVIRENZ], the EC50 in assay [2] turned out to be 40 nM; in assay [3], 1 nM; in assay [4], 2 nM; in assay [5], 160 nM; in assay [6], 40 nM; in assay [7], 40 nM. In assay [8], this molecule showed an EC50 above 10000 nM.

Regarding `Cc1cc(C#N)cc(C)c1Oc1nc(Nc2ccc(C#N)cc2)nc(N)c1Br` [ETRAVIRINE], the EC50 was found to be 3 nM in assay [2]; 1 nM in assay [3]; 7 nM in assay [4]; 5 nM in assay [5]; 1 nM in assay [6]; 4 nM in assay [7]. The same molecule gave an EC50 in assay [8] of 19 nM.

For the molecule `CC(=O)c1ccc(C)cc1NC(C(N)=O)c1c(Cl)cccc1Cl` (stereo unspecified) [LOVIRIDE], the EC50 amounted to 50 nM in assay [2]; 13 nM in assay [3]; 16000 nM in assay [4]; 50000 nM in assay [5]; 1300 nM in assay [6].

Consider `Cc1ccnc2c1NC(=O)c1cccnc1N2C1CC1` [NEVIRAPINE], for which the EC50 in assay [2] was 320 nM; in assay [3] it was 32 nM; in assay [4] it was 10000 nM; in assay [5], above 100000 nM; in assay [6], 6310 nM; in assay [7], above 10000 nM.

Molecule `CC(C)=CCN1Cc2c(Cl)ccc3[nH]c(=S)n(c23)C[C@@H]1C` [TIVIRAPINE] registered an EC50 in assay [1] of 4.6 nM.

The values are drawn from ChEMBL document CHEMBL1142713, “From 4,5,6,7-tetrahydro-5-methylimidazo[4,5,1-jk](1,4)benzodiazepin-2(1H)-one (TIBO) to etravirine (TMC125): fifteen years of research on non-nucleoside inhibitors of HIV-1 reverse transcriptase” (J Med Chem, 2005).
